This experiment concerns Pyrenophora teres. The experiment can be described thus: In vivo test on Pyrenophora teres (barley net blotch). The conditions noted are these: 500 ppm, preventive spray on barley plants (Express), grading 12 days after contamination vs control plants. On the procedure:
The active ingredients tested are prepared by homogenisation in a mixture of acetone/tween/DMSO, then diluted with water to obtain the desired active material concentration.
Barley plants (Express variety), sown on a 50/50 peat soil-pozzolana substrate in starter cups and grown at 12° C., are treated at the 1-leaf stage (10 cm tall) by spraying with the active ingredient prepared as described above. Plants, used as controls, are treated with the mixture of acetone/tween/DMSO/water not containing the active material.
After 24 hours, the plants are contaminated by spraying them with an aqueous suspension of Pyrenophora teres spores (12,000 spores per ml). The spores are collected from a 12-day-old culture. The contaminated barley plants are incubated for 24 hours at about 20° C. and at 100% relative humidity, and then for 12 days at 80% relative humidity.
Grading is carried out 12 days after the contamination, in comparison with the control plants.

Take `CC(Cc1ccc(Cl)cc1)NC(=O)c1ccccc1C(F)(F)F` (stereo not shown) [Compound 1]: the protection entry was “at least 70%”.

The record behind these values is patent publication US8314269B2, “N-(1-methyl-2phenylethyl)benzamide derivatives” (Bayer Cropscience AG, priority 2005, dated 2012).
